In patent publication US20170081338A1, “SUBSTITUTED HETEROARYL COMPOUNDS AND METHODS OF USE” (Sunshine Lake Pharma Co., Ltd., priority 2015, published 2017):

Key:
[1] = Compound stability in human liver microsomes; assay type: in vitro ADME; details: pH 7.4; for half-life at 5 μM: human liver microsomes 0.5 mg protein/mL, compound 5 μM, NADPH, 37° C., read-out: Human T1/2; for CLint scaled at 5 μM: human liver microsomes, in vivo CLint extrapolated
Method: (§1) Human or rat liver microsomes incubations were conducted in duplicate in polypropylene tubes. The typical incubation mixtures consisted of human or rat liver microsomes (0.5 mg protein/mL), compounds of interest (5 μM) and NADPH (1.0 mM) in a total volume of 200 μL potassium phosphate buffer (PBS, 100 mM, pH 7.4). Compounds were dissolved in DMSO and diluted with PBS such that the final concentration of DMSO was 0.05%. The enzymatic reactions were commenced with the addition of protein after a 3-min preincubation and incubated in a water bath open to the air at 37° C. Reactions were terminated at various time points (0, 5, 10, 15, 30, 60 min) by adding equal volume of ice-cold acetonitrile. The samples were stored at −80° C. until LC/MS/MS assays.
(§2) The concentrations of compounds in the incubation mixtures of human or rat liver microsomes were determined by a LC/MS/MS method. The ranges of the linearity in the concentration range were determined for each tested compounds.
(§3) A parallel incubation was performed using denatured microsomes as the negative control, and reactions were terminated at various time points (0, 15, 60 min) after incubation at 37° C.
(§4) Dextromethorphan (70 μM) was selected as the positive control, and reactions were terminated at various time points (0, 5, 10, 15, 30, 60 min) after incubation at 37° C. Both positive and negative control samples were included in each assay to ensure the integrity of the microsomal incubation system.
(§5) The concentrations of compounds in human or rat liver microsome incubations were plotted as a percentage of the relevant zero time point control for each reaction. The in vivo CLint were extrapolated (ref.: Naritomi, Y.; Terashita, S.; Kimura, S.; Suzuki, A.; Kagayama, A.; and Sugiyama, Y.; Prediction of human hepatic clearance from in vivo animal experiments and in vitro metabolic studies with liver microsomes from animals and humans. Drug Metab. Dispos., 2001, 29: 1316-1324).

[2] = Compound stability in rat liver microsomes; assay type: in vitro ADME; details: pH 7.4; for half-life at 5 μM: rat liver microsomes 0.5 mg protein/mL, compound 5 μM, NADPH, 37° C., read-out: Rat T1/2; for CLint scaled at 5 μM: rat liver microsomes, in vivo CLint extrapolated
Method: as §1, §2, §3, §4, §5

[3] = molecular target: T1, Aurora-A (h) (Homo sapiens, UniProt O14965); assay: Aurora-A (h) kinase assay; assay type: biochemical
T1 construct: purchased Millipore UK Ltd (contract assay service)
T1 sequence (O14965 1-403): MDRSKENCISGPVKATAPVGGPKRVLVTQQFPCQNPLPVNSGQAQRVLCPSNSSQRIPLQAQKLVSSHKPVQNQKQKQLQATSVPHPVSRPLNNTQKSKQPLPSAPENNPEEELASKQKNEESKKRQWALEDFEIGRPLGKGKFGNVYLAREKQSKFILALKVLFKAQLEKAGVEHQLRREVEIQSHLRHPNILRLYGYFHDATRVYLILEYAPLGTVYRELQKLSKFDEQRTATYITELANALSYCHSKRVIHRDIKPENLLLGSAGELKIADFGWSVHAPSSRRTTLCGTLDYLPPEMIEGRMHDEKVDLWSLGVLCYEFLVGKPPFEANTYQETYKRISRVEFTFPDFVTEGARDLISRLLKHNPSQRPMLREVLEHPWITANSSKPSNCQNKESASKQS
Method: The above assay procedure can be used to determine the IC50 for inhibition and/or the inhibition constant, Ki. The IC50 is defined as the concentration of compound required to reduce the enzyme activity by 50% under the condition of the assay. The IC50 value is estimated by preparing a 10 point curve using a 1/2 log dilution series (for example, a typical curve may be prepared using the following compound concentrations: 3 μM, 1 μM, 0.3 μM, 0.1 μM, 0.03 μM, 0.01 μM, 0.003 μM, 0.001 μM, 0.0003 μM and 0 μM).
Aurora-A (h) is incubated with 8 mM MOPS pH 7.0, 0.2 mM EDTA, 200 μM LRRASLG (Kemptide), 10 mM MgAcetate and [γ-^33P-ATP] (specific activity approx. 500 cpm/pmol, concentration as required). The reaction is initiated by the addition of the MgATP mix. After incubation for 40 minutes at room temperature, the reaction is stopped by the addition of 3% phosphoric acid solution. 10 μL of the reaction is then spotted onto a P30 filtermat and washed three times for 5 minutes in 75 mM phosphoric acid and once in methanol prior to drying and scintillation counting.
The kinase assays described herein were performed at Millipore UK Ltd, Dundee Technology Park, Dundee DD2 1SW, UK.

[4] = Pharmacokinetics after intravenous and oral administration in rats; assay type: in vivo; details: for Clearance (CL) after iv dosing / AUC(0-t) / half-life / Vd: dose 1 mg/kg, iv dosing; for F: oral bioavailability; for AUC(0-t) / half-life / Vd: rat, plasma; for Vd: read-out: Vss
Method: The LC/MS/MS system used in the analysis consists of an Agilent 1200 Series vacuum degasser, binary pump, well-plate autosampler, thermostatted column compartment, the Agilent G6430 Triple Quadrupole Mass Spectrometer with an electrosprayionization (ESI) source. Quantitative analysis was carried out using MRM mode. The parameters for MRM transitions are in the Table A.
An Agilent XDB-C18, 2.1×30 mm, 3.5 μM column was used for the analysis. 5 μL of the samples were injected. Analysis condition: The mobile phase was 0.1% formic acid in water (A) and 0.1% formic acid in methanol (B). The flow rate was 0.4 mL/min. And the gradient of Mobile phase was in the Table B.
Alternatively, an Agilent 6330 series LC/MS/MS spectrometer equipped with G1312A binary pumps, a G1367A autosampler and a G1314C UV detector were used in the analysis. An ESI source was used on the LC/MS/MS spectrometer. The analysis was done in positive ion mode as appropriate and the MRM transition for each analyte was optimized using standard solution. A Capcell MP-C18 100×4.6 mm I.D., […] column (Phenomenex, Torrance, Calif., USA) was used during the analysis. The mobile phase was 5 mM ammonia acetate, 0.1% MeOH in water (A): 5 mM ammonia acetate, 0.1% MeOH in acetonitrile (B) (70/30, v/v). The flow rate was 0.6 mL/min. Column was maintained at ambient temperature. 20 μL of the samples were injected.
The compounds disclosed herein are assessed in pharmacokinetic studies in mice, rats, dogs or monkeys. The compounds are administered as a water solution, 2% HPMC+1% TWEEN®80 in water solution, 5% DMSO+5% solutol in saline, 4% MC suspension or capsule. For the intravenous administration, the animals are generally given at 0.5, 1 or 2 mg/kg dose. For the oral (p.o.) dosing, mice and rats are generally given 0.5, 1, 5 or 10 mg/kg dose, and dogs and monkeys are generally given 10 mg/kg dose. The blood samples (0.3 mL) are drawn at 0.25, 0.5, 1.0, 2.0, 3.0, 4.0, 6.0, 8.0, 12 and 24 h time points or 0.083, 0.25, 0.5, 1.0, 2.0, 4.0, 6.0, 8.0 and 24 h time points and centrifuged at 3,000 or 4000 rpm for 2 to 10 min. The plasma solutions are collected, and stored at −20° C. or −70° C. until analyzed by LC/MS/MS as described above.

| Compound | half-life at 5 μM [1] | CLint scaled at 5 μM [1] | half-life at 5 μM [2] | CLint scaled at 5 μM [2] | IC50 [3] | Clearance (CL) after iv dosing [4] | F [4] | AUC(0-t) [4] | half-life [4] | Vd [4] |
| --- | --- | --- | --- | --- | --- | --- | --- | --- | --- | --- |
| Cn1cc(Nc2ncc(Cl)c(N[C@H]3COC4C3OC[C@H]4NS(=O)(=O)N3CCCC3)n2)cn1 (stereo partly drawn) [Ex. 6, N-((3R,6S)-6-((5-chloro-2-((1-methyl-1H-pyrazol-4-yl)amino)pyrimidin-4-yl)amino)hexahydrofuro[3,2-b]furan-3-yl)pyrrolidine-1-sulfonamide] | 37.3 min | 46.5 mL/min/kg | 37.7 min | 65.8 mL/min/kg | 984 nM | 53.8 mL/min/kg | 44.3% | 309 ng·h/mL | 34.8 min | 1.54 L/kg |
| Cn1cc(Nc2ncc(Cl)c(N[C@@H]3COC4C3OC[C@@H]4NS(=O)(=O)C3CC3)n2)cn1 (stereo partly drawn) [Ex. 4, N-((3S,6R)-6-((5-chloro-2-((1-methyl-1H-pyrazol-4-yl)amino)pyrimidin-4-yl)amino)hexahydrofuro[3,2-b]furan-3-yl)cyclopropanesulfonamide] | 563 min | 3.09 mL/min/kg | 103 min | 24 mL/min/kg | 53 nM | 23.7 mL/min/kg | 51.7% | 712 ng·h/mL | 21 min | 0.69 L/kg |
| CC(C)CS(=O)(=O)N[C@@H]1COC2C1OC[C@@H]2Nc1nc(Nc2cnn(C)c2)ncc1Cl (stereo partly drawn) [Ex. 13, N-((3R,6S)-6-((5-chloro-2-((1-methyl-1H-pyrazol-4-yl)amino)pyrimidin-4-yl)amino)hexahydrofuro[3,2-b]furan-3-yl)-2-methylpropane-1-sulfonamide] | 32.9 min | 52.8 mL/min/kg | 41.4 min | 60 mL/min/kg | 1030 nM | 57 mL/min/kg | 74.5% | 291 ng·h/mL | 58.2 min | 2.56 L/kg |
| Cn1cc(Nc2ncc(Cl)c(N[C@H]3COC4C3OC[C@H]4NS(=O)(=O)CC(F)(F)F)n2)cn1 (stereo partly drawn) [Ex. 5, N-((3R,6S)-6-((5-chloro-2-((1-methyl-1H-pyrazol-4-yl)amino)pyrimidin-4-yl)amino)hexahydrofuro[3,2-b]furan-3-yl)-2,2,2-trifluoroethanesulfonamide] | 243 min | 7.16 mL/min/kg | 82.7 min | 30 mL/min/kg | 1000 nM | 38.8 mL/min/kg | 44.0% | 420 ng·h/mL | 108 min | 2.01 L/kg |

Compounds with a lower IC50 [3], results first:

| half-life at 5 μM [1] | CLint scaled at 5 μM [1] | half-life at 5 μM [2] | CLint scaled at 5 μM [2] | IC50 [3] | Clearance (CL) after iv dosing [4] | F [4] | AUC(0-t) [4] | half-life [4] | Vd [4] | Compound |
| --- | --- | --- | --- | --- | --- | --- | --- | --- | --- | --- |
| 142 min | 12.3 mL/min/kg | 22 min | 113 mL/min/kg | 45 nM | – | – | – | – | – | Cn1cc(Nc2ncc(Cl)c(N[C@@H]3COC4C3OC[C@@H]4Nc3ccc(C#N)nn3)n2)cn1 (stereo partly drawn) [Ex. 3, 6-(((3S,6R)-6-((5-chloro-2-((1-methyl-1H-pyrazol-4-yl)amino)pyrimidin-4-yl)amino)hexahydrofuro[3,2-b]furan-3-yl)amino)pyridazine-3-carbonitrile] |
| 143 min | 12.1 mL/min/kg | 91.6 min | 27.1 mL/min/kg | 34 nM | 23.2 mL/min/kg | 86.5% | 726 ng·h/mL | 47.4 min | 1.11 L/kg | CC(C)S(=O)(=O)N[C@H]1COC2C1OC[C@H]2Nc1nc(Nc2cnn(C)c2)ncc1Cl (stereo partly drawn) [Ex. 15, N-((3S,6R)-6-((5-chloro-2-((1-methyl-1H-pyrazol-4-yl)amino)pyrimidin-4-yl)amino)hexahydrofuro[3,2-b]furan-3-yl)propane-2-sulfonamide] |
| 39.1 min | 44.4 mL/min/kg | 106 min | 23.4 mL/min/kg | 17 nM | – | – | – | – | – | Cn1cc(Nc2ncc(Cl)c(N[C@@H]3COC4C3OC[C@@H]4NS(=O)(=O)CC3CCOC3)n2)cn1 (stereo partly drawn) [Ex. 16, N-((3S,6R)-6-((5-chloro-2-((1-methyl-1H-pyrazol-4-yl)amino)pyrimidin-4-yl)amino)hexahydrofuro[3,2-b]furan-3-yl)-1-(tetrahydrofuran-3-yl)methanesulfonamide] |
| 75.5 min | 23 mL/min/kg | 116 min | 21.5 mL/min/kg | 41 nM | 60.3 mL/min/kg | 42.5% | 284 ng·h/mL | 27.6 min | 1.41 L/kg | Cn1cc(Nc2ncc(Cl)c(N[C@@H]3COC4C3OC[C@@H]4NS(=O)(=O)C3CCOC3)n2)cn1 (stereo partly drawn) [Ex. 20, N-((3S,6R)-6-((5-chloro-2-((1-methyl-1H-pyrazol-4-yl)amino)pyrimidin-4-yl)amino)hexahydrofuro[3,2-b]furan-3-yl)tetrahydrofuran-3-sulfonamide] |
| 24.7 min | 70.4 mL/min/kg | 47.7 min | 52.1 mL/min/kg | 51 nM | 33.3 mL/min/kg | 91.9% | 497 ng·h/mL | 54 min | 1.08 L/kg | Cn1cc(Nc2ncc(Cl)c(N[C@@H]3COC4C3OC[C@@H]4NS(=O)(=O)C3CCCC3)n2)cn1 (stereo partly drawn) [Ex. 14, N-((3S,6R)-6-((5-chloro-2-((1-methyl-1H-pyrazol-4-yl)amino)pyrimidin-4-yl)amino)hexahydrofuro[3,2-b]furan-3-yl)cyclopentanesulfonamide] |
